Assay: Stability of formulations containing testosterone in containers of different material (HPLC)
Type: physicochemical
Experimental: As an example for the aforementioned considerations in table 1 are shown the results of tests investigating the stability of formulations containing the steroid hormone testosterone in containers of different material.
The term “remaining drug after storage” is the amount of testosterone remaining in the formulation after storage for 22 hours. The remaining drug was measured by HPLC technique.

## C[C@]12CC[C@H]3[C@@H](CCC4=CC(=O)CC[C@@]43C)[C@@H]1CC[C@@H]2O [testosterone]
Methanolic formulation, primary packaging material Glass, storage for 22 hours
  Remaining drug after storage (%): 100%
Oil-based formulation, primary packaging material Glass, storage for 22 hours
  Remaining drug after storage (%): ≈80%
Oil-based formulation, primary packaging material LDPE + TiO2, storage for 22 hours
  Remaining drug after storage (%): 100%
Oil-based formulation, primary packaging material LDPE, storage for 22 hours
  Remaining drug after storage (%): ≈30%
Oil-based formulation, primary packaging material PP, storage for 22 hours
  Remaining drug after storage (%): ≈50%

Reference: patent US8609043B2, “Use of a container of an inorganic additive containing plastic material” (M & P Patent Aktiengesellschaft, priority 2001, dated 2013)
